Experiment [1] has as its target T1, Serine/threonine-protein kinase D2 (Homo sapiens) (UniProt Q9BZL6).
T1 sequence (whole entry): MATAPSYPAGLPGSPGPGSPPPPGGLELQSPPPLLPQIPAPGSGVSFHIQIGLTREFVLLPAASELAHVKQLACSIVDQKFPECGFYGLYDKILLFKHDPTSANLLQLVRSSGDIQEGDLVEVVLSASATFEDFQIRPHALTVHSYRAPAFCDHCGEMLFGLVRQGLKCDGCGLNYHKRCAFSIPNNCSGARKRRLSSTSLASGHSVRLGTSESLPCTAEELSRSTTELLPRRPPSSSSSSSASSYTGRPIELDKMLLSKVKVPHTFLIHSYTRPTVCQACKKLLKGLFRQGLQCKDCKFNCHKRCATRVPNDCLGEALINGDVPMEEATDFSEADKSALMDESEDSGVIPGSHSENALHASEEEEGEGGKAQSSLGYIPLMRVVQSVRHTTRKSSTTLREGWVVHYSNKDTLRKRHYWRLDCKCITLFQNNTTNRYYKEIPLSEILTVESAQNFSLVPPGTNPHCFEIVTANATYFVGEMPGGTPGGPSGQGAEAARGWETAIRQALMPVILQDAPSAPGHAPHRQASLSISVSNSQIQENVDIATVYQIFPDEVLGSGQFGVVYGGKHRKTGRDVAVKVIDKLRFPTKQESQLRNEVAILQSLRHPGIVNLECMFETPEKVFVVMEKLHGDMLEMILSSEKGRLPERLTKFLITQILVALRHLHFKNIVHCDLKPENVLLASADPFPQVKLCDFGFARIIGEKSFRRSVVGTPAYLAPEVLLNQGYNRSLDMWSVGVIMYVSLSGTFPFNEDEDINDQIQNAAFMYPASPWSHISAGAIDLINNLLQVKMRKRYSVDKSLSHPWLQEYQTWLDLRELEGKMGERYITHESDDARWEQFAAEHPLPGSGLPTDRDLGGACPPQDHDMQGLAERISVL
Particulars: 0.1 uM.
Description: Inhibition of human full length PKD2 expressed in baculovirus assessed as substrate phosphorylation using fluorescence-labelled peptides as substrate at 0.1 uM after 90 mins by microfluidic peptide phosphorylation assay

The target of experiment [2] is T2, cGMP-dependent protein kinase 1 (Homo sapiens) (UniProt Q13976).
T2 sequence (whole entry): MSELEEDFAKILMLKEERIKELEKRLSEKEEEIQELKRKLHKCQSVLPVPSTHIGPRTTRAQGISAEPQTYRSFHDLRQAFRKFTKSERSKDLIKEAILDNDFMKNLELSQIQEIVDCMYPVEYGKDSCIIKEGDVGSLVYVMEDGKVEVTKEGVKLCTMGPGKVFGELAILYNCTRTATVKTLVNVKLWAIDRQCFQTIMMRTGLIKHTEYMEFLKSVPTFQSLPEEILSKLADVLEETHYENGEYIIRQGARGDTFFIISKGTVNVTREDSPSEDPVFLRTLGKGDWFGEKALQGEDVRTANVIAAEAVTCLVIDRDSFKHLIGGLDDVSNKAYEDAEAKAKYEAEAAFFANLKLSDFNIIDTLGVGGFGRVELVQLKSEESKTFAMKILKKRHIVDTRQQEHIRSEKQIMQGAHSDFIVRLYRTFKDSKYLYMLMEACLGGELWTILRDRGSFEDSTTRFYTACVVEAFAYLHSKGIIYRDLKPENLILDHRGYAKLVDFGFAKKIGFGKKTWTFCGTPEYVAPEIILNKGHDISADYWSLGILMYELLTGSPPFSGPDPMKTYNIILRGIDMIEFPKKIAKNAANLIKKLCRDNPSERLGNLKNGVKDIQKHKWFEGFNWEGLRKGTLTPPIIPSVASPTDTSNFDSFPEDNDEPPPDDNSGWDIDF
Briefly: Inhibition of human full length PKG-1a expressed in baculovirus assessed as substrate phosphorylation using fluorescence-labelled peptides as substrate at 0.2 uM after 90 mins by microfluidic peptide phosphorylation assay.

Experiment [3] concerns the target Mitogen-activated protein kinase kinase kinase kinase 4 (Homo sapiens) (UniProt O95819). Briefly: Inhibition of human HGK catalytic domain expressed in baculovirus assessed as substrate phosphorylation using fluorescence-labelled peptides as substrate at 0.2 uM after 90 mins by microfluidic peptide phosphorylation assay.
The target of experiment [4] is Tyrosine-protein kinase ABL2 (Homo sapiens) (UniProt P42684). Briefly: Inhibition of human truncated Arg expressed in baculovirus assessed as substrate phosphorylation using fluorescence-labelled peptides as substrate at 0.06 uM after 90 mins by microfluidic peptide phosphorylation assay.
Experiment [5] has as its target T3, Protein kinase C zeta type (Homo sapiens) (UniProt Q05513).
T3 sequence (whole entry): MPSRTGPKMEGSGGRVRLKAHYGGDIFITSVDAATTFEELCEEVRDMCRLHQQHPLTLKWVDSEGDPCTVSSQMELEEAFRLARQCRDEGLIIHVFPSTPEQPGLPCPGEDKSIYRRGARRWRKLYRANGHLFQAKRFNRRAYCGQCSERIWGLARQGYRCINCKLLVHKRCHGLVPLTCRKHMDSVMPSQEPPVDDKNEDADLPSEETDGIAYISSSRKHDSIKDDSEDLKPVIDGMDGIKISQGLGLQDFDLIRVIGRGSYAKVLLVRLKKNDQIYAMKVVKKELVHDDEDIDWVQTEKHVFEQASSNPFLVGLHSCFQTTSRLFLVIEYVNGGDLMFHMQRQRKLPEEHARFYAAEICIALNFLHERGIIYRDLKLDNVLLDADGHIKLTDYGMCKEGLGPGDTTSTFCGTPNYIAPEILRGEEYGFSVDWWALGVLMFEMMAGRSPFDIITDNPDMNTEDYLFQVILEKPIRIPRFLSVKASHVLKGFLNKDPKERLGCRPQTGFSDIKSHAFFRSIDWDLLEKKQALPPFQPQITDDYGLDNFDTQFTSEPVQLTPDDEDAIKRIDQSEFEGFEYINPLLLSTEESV
The experiment can be described thus: Inhibition of human full length PKC zeta expressed in baculovirus assessed as substrate phosphorylation using fluorescence-labelled peptides as substrate at 95 uM after 90 mins by microfluidic peptide phosphorylation assay.

Experiment [6] deals with Mitogen-activated protein kinase kinase kinase kinase 4 (Homo sapiens) (UniProt O95819). Briefly: Inhibition of human HGK catalytic domain expressed in baculovirus assessed as substrate phosphorylation using fluorescence-labelled peptides as substrate at 95 uM after 90 mins by microfluidic peptide phosphorylation assay.
The target of experiment [7] is Protein kinase C gamma type (Homo sapiens) (UniProt P05129). The experiment can be described thus: Inhibition of human truncated PKC gamma expressed in baculovirus assessed as substrate phosphorylation using fluorescence-labelled peptides as substrate at 95 uM after 90 mins by microfluidic peptide phosphorylation assay.
Experiment [8] concerns the target Calcium/calmodulin-dependent protein kinase type II subunit delta (Homo sapiens) (UniProt Q13557). The experiment can be described thus: Inhibition of human full length CAMK2D expressed in baculovirus assessed as substrate phosphorylation using fluorescence-labelled peptides as substrate at 70 uM after 90 mins by microfluidic peptide phosphorylation assay.
For experiment [9], the target named is Fibroblast growth factor receptor 4 (Homo sapiens) (UniProt P22455). The experiment can be described thus: Inhibition of human FGFR4 catalytic domain expressed in baculovirus assessed as substrate phosphorylation using fluorescence-labelled peptides as substrate at […] after 90 mins by microfluidic peptide phosphorylation assay.
The target in experiment [10] is Ribosomal protein S6 kinase alpha-3 (Homo sapiens) (UniProt P51812). The experiment can be described thus: Inhibition of human full length RSK2 expressed in baculovirus assessed as substrate phosphorylation using fluorescence-labelled peptides as substrate at 1000 uM after 90 mins by microfluidic peptide phosphorylation assay.

The structures appear in SMILES notation.

Sequence of Mitogen-activated protein kinase kinase kinase kinase 4 (Homo sapiens) (O95819 2-1239 limits assumed): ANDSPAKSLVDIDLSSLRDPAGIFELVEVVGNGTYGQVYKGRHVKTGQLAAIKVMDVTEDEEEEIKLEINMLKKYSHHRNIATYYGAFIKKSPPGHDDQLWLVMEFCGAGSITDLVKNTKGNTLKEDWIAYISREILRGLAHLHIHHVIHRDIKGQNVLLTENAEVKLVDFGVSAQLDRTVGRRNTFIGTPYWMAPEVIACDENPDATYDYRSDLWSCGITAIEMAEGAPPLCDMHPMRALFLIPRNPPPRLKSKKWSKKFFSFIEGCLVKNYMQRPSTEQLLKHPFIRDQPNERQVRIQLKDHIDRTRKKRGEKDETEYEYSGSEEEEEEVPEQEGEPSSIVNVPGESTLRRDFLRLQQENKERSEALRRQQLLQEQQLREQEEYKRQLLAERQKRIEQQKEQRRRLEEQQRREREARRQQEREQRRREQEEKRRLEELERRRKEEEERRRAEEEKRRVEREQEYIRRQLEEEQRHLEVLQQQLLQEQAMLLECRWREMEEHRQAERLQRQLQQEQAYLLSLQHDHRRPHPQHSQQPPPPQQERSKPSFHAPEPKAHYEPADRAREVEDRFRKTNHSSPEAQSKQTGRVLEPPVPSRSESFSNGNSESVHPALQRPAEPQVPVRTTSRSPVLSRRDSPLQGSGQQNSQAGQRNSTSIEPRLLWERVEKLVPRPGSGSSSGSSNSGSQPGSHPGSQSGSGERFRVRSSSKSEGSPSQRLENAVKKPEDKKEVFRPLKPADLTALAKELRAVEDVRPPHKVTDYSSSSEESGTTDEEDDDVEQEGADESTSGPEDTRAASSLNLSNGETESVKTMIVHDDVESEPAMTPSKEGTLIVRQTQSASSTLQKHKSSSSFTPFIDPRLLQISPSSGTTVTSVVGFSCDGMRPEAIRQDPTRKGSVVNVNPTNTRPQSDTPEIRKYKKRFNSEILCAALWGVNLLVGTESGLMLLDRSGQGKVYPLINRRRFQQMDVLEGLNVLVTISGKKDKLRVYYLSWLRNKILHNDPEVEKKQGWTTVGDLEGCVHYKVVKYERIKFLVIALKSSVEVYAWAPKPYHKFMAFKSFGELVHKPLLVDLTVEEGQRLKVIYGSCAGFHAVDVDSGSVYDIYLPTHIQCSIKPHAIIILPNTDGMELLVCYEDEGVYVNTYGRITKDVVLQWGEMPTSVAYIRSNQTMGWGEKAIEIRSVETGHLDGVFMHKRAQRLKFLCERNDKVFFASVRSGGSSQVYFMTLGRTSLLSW
Sequence of Tyrosine-protein kinase ABL2 (Homo sapiens) (P42684 whole entry, the tested form may be a part): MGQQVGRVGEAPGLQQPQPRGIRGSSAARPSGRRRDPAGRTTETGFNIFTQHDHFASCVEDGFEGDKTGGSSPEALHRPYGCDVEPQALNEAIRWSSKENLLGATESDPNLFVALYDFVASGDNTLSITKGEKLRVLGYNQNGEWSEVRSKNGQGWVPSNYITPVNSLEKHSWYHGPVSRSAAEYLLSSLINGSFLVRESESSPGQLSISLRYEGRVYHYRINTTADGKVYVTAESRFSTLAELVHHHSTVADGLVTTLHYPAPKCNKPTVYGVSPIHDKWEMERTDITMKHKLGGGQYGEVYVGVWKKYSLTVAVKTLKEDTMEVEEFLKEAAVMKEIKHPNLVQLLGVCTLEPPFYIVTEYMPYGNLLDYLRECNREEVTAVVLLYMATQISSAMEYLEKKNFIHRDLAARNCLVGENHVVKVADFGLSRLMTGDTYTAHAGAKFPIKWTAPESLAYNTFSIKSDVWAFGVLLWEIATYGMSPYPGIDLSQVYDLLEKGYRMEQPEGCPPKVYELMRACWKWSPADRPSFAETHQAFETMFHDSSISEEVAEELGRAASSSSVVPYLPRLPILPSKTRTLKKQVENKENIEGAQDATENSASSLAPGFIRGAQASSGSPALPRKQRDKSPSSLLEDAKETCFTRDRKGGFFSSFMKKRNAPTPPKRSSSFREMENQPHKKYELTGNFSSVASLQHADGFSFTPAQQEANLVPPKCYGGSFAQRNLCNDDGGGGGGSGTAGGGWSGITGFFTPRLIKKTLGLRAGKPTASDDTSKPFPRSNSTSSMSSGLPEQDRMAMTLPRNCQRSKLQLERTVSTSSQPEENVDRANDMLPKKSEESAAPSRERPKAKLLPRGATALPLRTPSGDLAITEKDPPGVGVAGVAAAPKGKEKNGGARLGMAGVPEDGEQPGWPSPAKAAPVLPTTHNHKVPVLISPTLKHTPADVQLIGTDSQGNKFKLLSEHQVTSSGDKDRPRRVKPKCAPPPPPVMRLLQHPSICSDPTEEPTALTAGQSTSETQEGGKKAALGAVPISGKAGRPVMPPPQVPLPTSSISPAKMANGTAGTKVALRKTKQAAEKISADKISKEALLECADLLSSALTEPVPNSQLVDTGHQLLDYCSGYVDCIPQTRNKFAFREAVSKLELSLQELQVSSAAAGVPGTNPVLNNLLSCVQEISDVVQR
Sequence of Calcium/calmodulin-dependent protein kinase type II subunit delta (Homo sapiens) (Q13557 whole entry, the tested form may be a part): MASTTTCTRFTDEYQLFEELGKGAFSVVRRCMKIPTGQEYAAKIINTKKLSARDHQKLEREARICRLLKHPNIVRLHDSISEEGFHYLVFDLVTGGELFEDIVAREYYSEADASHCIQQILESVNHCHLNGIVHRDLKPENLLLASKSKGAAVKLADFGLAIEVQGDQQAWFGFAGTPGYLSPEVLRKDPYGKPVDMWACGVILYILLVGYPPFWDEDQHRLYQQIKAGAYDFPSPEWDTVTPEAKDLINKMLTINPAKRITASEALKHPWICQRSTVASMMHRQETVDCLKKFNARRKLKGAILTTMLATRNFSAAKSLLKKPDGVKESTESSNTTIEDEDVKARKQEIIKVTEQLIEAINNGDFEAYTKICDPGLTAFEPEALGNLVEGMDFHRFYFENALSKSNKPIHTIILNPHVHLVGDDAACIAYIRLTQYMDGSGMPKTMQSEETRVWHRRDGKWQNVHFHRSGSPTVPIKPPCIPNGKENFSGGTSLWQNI
Sequence of Fibroblast growth factor receptor 4 (Homo sapiens) (P22455 22-802 limits assumed): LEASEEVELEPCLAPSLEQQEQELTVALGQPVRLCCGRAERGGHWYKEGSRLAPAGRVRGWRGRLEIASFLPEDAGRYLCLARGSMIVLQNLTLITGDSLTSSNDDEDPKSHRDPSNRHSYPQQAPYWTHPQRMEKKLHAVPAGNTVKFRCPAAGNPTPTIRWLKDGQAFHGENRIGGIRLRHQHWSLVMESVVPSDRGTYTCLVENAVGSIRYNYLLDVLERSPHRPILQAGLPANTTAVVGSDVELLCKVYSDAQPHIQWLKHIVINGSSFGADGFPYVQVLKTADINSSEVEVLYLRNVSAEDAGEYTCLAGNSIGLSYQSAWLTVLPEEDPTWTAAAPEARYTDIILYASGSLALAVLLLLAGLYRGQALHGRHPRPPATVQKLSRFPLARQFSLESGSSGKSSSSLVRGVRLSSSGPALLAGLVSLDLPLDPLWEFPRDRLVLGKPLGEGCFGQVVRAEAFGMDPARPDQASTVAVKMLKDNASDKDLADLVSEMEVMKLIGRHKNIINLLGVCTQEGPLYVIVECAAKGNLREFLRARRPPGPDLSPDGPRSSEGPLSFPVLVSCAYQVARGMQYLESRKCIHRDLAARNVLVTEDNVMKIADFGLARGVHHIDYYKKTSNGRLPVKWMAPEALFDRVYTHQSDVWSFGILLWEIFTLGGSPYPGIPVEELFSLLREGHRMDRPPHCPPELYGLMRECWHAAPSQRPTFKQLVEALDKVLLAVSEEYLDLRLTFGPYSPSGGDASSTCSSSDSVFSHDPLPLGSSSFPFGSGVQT

`C[C@H](CN(C)C)Oc1nc(Nc2cc3cccc(Cl)c3cn2)cnc1C#N` gave an inhibition in [1] of 0%.
As to `Clc1ccc(C2(c3ccc(-c4ncnc5[nH]cnc45)cc3)CCNCC2)cc1`, the inhibition in experiment [2] amounted to 88.5%; in [3] it was 3%.
With `NC1(Cc2ccc(Cl)cc2)CCN(c2ncnc3[nH]ccc23)CC1`, in [4], the inhibition turned out to be 5%.
With `NCCc1ccc(-c2ncnc3[nH]cnc23)cc1`, the results for the inhibition in experiment [5], in experiment [6] and in experiment [7] were 0%, 39.5% and 71%, respectively.
`CNCc1ccc(-c2ncnc3[nH]cnc23)cc1`: the inhibition in [8] came to 17.5%.
Consider `COC(=O)c1cnc(Nc2cnc(C#N)cn2)cc1NCC1CCNCC1`, for which the inhibition in experiment [9] is 1.5%.
In the case of `c1cnc2[nH]ccc2c1`, the inhibition in experiment [10] was found to be 68.5%.

The values are drawn from ChEMBL document CHEMBL3132769, “Fragment growing to retain or alter the selectivity of anchored kinase hinge-binding fragments” (Medchemcomm, 2014).
